Literature values in US20040157836A1, “Sulfonamides having antiangiogenic and anticancer activity” (priority 2002, published 2004).

Target: type 2-methionine aminopeptidase (MetAP-2) (Homo sapiens, UniProt P50579)
Conditions: reported in Proc. Natl. Acad. Sci. USA 94: 6099-6103 (1997) and Chemistry and Biology, 4(6): 461-471 (1997)

Chain of type 2-methionine aminopeptidase (MetAP-2) (P50579 whole entry, species assumed): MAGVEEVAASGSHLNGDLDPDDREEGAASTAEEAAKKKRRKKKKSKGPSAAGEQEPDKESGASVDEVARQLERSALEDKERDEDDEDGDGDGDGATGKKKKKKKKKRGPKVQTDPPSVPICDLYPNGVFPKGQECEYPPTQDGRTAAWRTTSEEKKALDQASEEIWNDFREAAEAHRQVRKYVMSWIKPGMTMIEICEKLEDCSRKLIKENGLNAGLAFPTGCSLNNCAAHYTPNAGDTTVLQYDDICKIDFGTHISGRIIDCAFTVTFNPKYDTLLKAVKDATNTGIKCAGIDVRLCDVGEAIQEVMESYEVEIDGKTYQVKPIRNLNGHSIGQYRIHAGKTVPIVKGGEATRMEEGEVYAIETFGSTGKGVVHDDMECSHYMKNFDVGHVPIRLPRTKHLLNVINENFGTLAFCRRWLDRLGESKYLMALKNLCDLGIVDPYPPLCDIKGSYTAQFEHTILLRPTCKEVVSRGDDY

## CO[C@@H]1[C@H](OC(=O)NC(=O)CCl)CC[C@]2(CO2)[C@H]1[C@@]1(C)O[C@@H]1CC=C(C)C [AGM-1470]
  bind to type 2-methionine aminopeptidase (MetAP-2): bind
